pIC50: −log10 of the molar value. Where “and” joins values, the source holds several entries; their conditions need not be identical. Identical values can stand only once. Like-named read-outs stand apart in the source and are kept apart here.
How the values were obtained:
[1] = tested on: HL-60 (promyelocytic leukemia); assay: cells; assay type: cell-based, human; conditions: read-out: Cancer cell line IC50, HL-60
[2] = tested on: SMMC-7721 (hepatocarcinoma); assay: cells; assay type: cell-based, human; conditions: read-out: Cancer cell line IC50, SMMC-7721
[3] = tested on: A549 (lung carcinoma); assay: cells; assay type: cell-based, human
[4] = tested on: MCF-7 (breast adenocarcinoma); assay: cells; assay type: cell-based, human; conditions: read-out: Cancer cell line IC50, MCF-7
[5] = tested on: SW-480 (colon adenocarcinoma); assay: cells; assay type: cell-based, human; conditions: read-out: Cancer cell line IC50, SW480
[6] = tested on: BEAS-2B normal cell line (human bronchial epithelial cell); conditions: for pIC50: read-out: Cancer cell line IC50, BEAS-2B
[7] = tested on: HL-60, SMMC-7721, A549, MCF-7 and SW-480 human cancer cell lines; assay: cells; assay type: cell-based; conditions: read-out: IC50 values across the five cancer cell lines
[8] = tested on: BEAS-2B normal cell line (human bronchial epithelial cell); assay: cells; conditions: read-out: Cancer cell line IC50, BEAS-2B
[9] = read-out: Cancer cell line IC50, A549
[10] = Homo sapiens, A549, 48 h, read-out: Cancer cell line IC50, A549
[11] = Homo sapiens, A549, read-out: Cancer cell line IC50, A549

With N.N.[Cl][Pt][Cl] [Cisplatin, cisplatin, reference compound] the pIC50 [1] was 5.72, the pIC50 [2] was 5.24 and the pIC50 [3, 9] was 5.19 and 5.01. It also gave a pIC50 [4] of 4.88, a pIC50 [5] of 4.92 and a pIC50 [6] of 5.02.
Compound C/C=C\C(=O)O[C@@H]1C[C@H]2O[C@@]34C=C(C)C(=O)C[C@]3(C)[C@]1(C)[C@]2(CO)O4 [Compound 1, engleromycone A] has a pIC50 ([1]; Homo sapiens, HL-60, 48 h) of 4.84, a pIC50 ([2]; Homo sapiens, SMMC-7721, 48 h) of 4.72 and a pIC50 [3, 10] of 4.72. For the same compound, the pIC50 [3, 11] was 4.72, the pIC50 ([4]; Homo sapiens, MCF7, 48 h) was 4.74 and the pIC50 ([5]; Homo sapiens, SW480, 48 h) was 4.69. The pIC50 ([7]; Homo sapiens, 48 h) was 4.69 to 4.84, the “selective cytotoxicity against the A549 cell line” value (“selective cytotoxicity” below) [6] was “did not exhibit selective cytotoxicity” and the pIC50 [8] was 4.71.
Work on C=C1[C@H]2C[C@@H](OC(=O)/C=C\C)[C@]1(C)[C@@]1(C)CC(=O)C(C)=C[C@H]1O2 [Compound 2, engleromycone B] yielded a pIC50 ([1]; Homo sapiens, HL-60, 48 h) of 5.57, a pIC50 ([2]; Homo sapiens, SMMC-7721, 48 h) of 5.08 and a pIC50 [3, 10] of 5.53. For the same compound, the pIC50 [3, 11] was 5.24, the pIC50 ([4]; Homo sapiens, MCF7, 48 h) was 4.68 and the pIC50 ([5]; Homo sapiens, SW480, 48 h) was 5.03. For the same compound, the pIC50 ([7]; Homo sapiens, 48 h) was 4.68 to 5.57, the “selective cytotoxicity” value [6] was “did not exhibit selective cytotoxicity” and the pIC50 [8] was 5.01.
In the case of CC1=C[C@]23O[C@@H]4[C@@H](O)C[C@](C)([C@@]2(C)CC1)[C@]4(CO)O3 [Compound 3, sambucinol], the pIC50 ([1]; Homo sapiens, HL-60, 48 h) was under 4.40, the pIC50 ([2]; Homo sapiens, SMMC-7721, 48 h) was under 4.40 and the pIC50 [3, 10] was under 4.40. For the same compound, the pIC50 ([4]; Homo sapiens, MCF7, 48 h) was under 4.40, the pIC50 ([5]; Homo sapiens, SW480, 48 h) was under 4.40 and the pIC50 ([7]; Homo sapiens, 48 h) was under 4.40.
CC1=C[C@]23O[C@@H]4CC[C@](C)([C@@]2(C)CC1)[C@]4(CO)O3 [Compound 4, 3-deoxysambucinol] was tested, and the pIC50 ([1]; Homo sapiens, HL-60, 48 h) was under 4.40, the pIC50 ([2]; Homo sapiens, SMMC-7721, 48 h) was under 4.40 and the pIC50 [3, 10] was under 4.40. It also gave a pIC50 ([4]; Homo sapiens, MCF7, 48 h) of under 4.40, a pIC50 ([5]; Homo sapiens, SW480, 48 h) of under 4.40 and a pIC50 ([7]; Homo sapiens, 48 h) of under 4.40.
With CC1=C[C@H]2O[C@@H]3C[C@@H](O)[C@](C)([C@@]2(C)CC1=O)[C@]31CO1 [Compound 5, trichothecolone] the pIC50 [1] was 5.31, the pIC50 [2] was 5.16 and the pIC50 [3, 9] was 5.38 and 5.24. The pIC50 [4] was 4.78, the pIC50 [5] was 5.07 and the “selective cytotoxicity” value [6] was “did not exhibit selective cytotoxicity”. It also gave a pIC50 [6] of 5.38.
With C/C=C\C(=O)O[C@@H]1C[C@H]2O[C@@H]3C=C(C)C(=O)C[C@]3(C)[C@]1(C)[C@]21CO1 [Compound 8, trichothecin] the pIC50 [1] was 6.85, the pIC50 [2] was 6.66 and the pIC50 [3, 9] was 6.70 and 6.66. For the same compound, the pIC50 [4] was 6.68, the pIC50 [5] was 6.74 and the pIC50 [7] was over 5.46. For the same compound, the “selective cytotoxicity” value [6] was “did not exhibit selective cytotoxicity” and the pIC50 [6] was 6.57.
In the case of C/C=C\C(=O)O[C@@H]1[C@@H](O)[C@H]2O[C@@H]3C=C(C)C(=O)C[C@]3(C)[C@]1(C)[C@]21CO1 [Compound 10, trichothecinol A], the pIC50 [1] was 7.66, the pIC50 [2] was 7.70 and the pIC50 [3, 9] was 7.82 and 7.80. The pIC50 [4] was 8.22, the pIC50 [5] was 7.96 and the pIC50 [7] was over 5.46. The “selective cytotoxicity” value [6] was “did not exhibit selective cytotoxicity” and the pIC50 [6] was 7.60.
Compound CC(=O)O[C@H]1C(=O)[C@@]2(C)[C@H]([C@H](OC(=O)c3ccccc3)[C@]3(O)C[C@H](OC(=O)[C@H](O)[C@@H](NC(=O)c4ccccc4)c4ccccc4)C(C)=C1C3(C)C)[C@]1(OC(C)=O)CO[C@@H]1C[C@@H]2O [Taxol, paclitaxel, reference compound] has a pIC50 ([1]; Homo sapiens, HL-60, 48 h) of over 8.10, a pIC50 ([2]; Homo sapiens, SMMC-7721, 48 h) of over 8.10 and a pIC50 [3, 10] of over 8.10. The pIC50 [3, 11] was over 8.10, the pIC50 ([4]; Homo sapiens, MCF7, 48 h) was over 8.10 and the pIC50 ([5]; Homo sapiens, SW480, 48 h) was over 8.10. The pIC50 [8] was over 6.01.

From paper PMC4328002 (Natural Products and Bioprospecting, 2015)
